The text below walks through data of US8785457B2 (Cellzome Limited, priority 2009, dated 2014).

What all share (format): binding
For one test, the target named is T1, PI3K delta (PI3 Kd) (Homo sapiens, UniProt O00329).
T1 construct: endogenous in cells; host or cells: Jurkat, clone E6-1 (ATCC TIB-152) cell lysate
Briefly: kinobeads assay, PI3K delta. The gist of the method:
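Competitive binding in Jurkat cell lysate (5 mg/mL protein) against beads carrying an immobilized phenylmorpholin-chromen ligand, in DP buffer pH 7.4 with NP40, DTT and NaF. Bead-bound kinases were eluted and quantified by antibody dot blot with infrared detection, and IC50 was taken from dose-response curves of a 1:3 dilution series.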

Another test concerns the target T2, PI3Kalpha (PI3Ka) (Homo sapiens, UniProt P42336).
T2 construct: endogenous in cells; host or cells: cell lysate
Kind of test: kinobeads assay, PI3Kalpha. The gist of the method: (§1)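 IC50s are fitted to per-kinase dose-response curves. Kinases retained on phenylmorpholin-chromen affinity beads are read by multiplexed immunodetection after elution. Compound, added at a range of concentrations straight into cell lysate, competes for this bead capture.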

For a further test, the target named is T3, PI3 Kgamma (PI3 Kg) (Homo sapiens, UniProt P48736).
T3 construct: endogenous in cells; host or cells: cell lysate
T3 sequence (P48736 whole entry): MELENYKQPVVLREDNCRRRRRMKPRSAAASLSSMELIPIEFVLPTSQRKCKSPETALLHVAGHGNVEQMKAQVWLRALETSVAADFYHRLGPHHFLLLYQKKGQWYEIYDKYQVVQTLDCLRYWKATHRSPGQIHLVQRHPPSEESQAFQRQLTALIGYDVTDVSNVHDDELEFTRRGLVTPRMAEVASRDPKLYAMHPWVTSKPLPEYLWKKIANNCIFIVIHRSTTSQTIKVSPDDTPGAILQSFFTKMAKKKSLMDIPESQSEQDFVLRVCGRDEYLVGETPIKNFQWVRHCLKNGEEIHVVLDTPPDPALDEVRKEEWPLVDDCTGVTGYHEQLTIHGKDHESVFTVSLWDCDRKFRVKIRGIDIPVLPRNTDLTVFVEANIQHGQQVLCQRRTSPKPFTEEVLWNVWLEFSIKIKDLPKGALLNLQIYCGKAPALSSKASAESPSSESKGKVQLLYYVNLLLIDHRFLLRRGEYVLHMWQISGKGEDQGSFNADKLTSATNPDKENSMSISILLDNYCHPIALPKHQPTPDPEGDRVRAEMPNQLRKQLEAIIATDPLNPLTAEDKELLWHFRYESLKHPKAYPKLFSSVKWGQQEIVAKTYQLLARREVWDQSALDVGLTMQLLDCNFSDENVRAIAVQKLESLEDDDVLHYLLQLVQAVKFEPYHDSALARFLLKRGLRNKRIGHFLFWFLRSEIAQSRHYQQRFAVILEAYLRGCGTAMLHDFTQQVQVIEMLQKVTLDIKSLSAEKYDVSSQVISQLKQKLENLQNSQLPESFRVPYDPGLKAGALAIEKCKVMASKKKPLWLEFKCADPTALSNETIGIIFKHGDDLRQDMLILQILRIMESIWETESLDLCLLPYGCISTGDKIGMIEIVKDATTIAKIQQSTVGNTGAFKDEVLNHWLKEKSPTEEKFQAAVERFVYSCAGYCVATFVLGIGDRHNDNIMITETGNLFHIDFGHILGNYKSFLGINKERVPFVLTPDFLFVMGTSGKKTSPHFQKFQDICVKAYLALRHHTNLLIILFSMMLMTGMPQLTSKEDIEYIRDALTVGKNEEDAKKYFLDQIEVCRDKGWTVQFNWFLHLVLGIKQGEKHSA
Kind of test: kinobeads assay, PI3Kgamma. The gist of the method: as §1

[1] abbreviates: kinobeads assay, Table 4, read-out: Inhibition values (IC50) PI3Kd.
Setting [2] is: kinobeads assay, Table 6, read-out: Inhibition values (IC50) PI3Kd.
Setting [3] is: kinobeads assay, Table 6, read-out: Inhibition values (IC50) PI3Kg.
[4] abbreviates: Further Kinobeads Data, read-out: PI3Kd.
Where [5] appears, read: Further Kinobeads Data, read-out: PI3Kg.
Setting [6] is: Further Kinobeads Data, read-out: PI3Ka.

Molecules are shown by their SMILES. Like-named read-outs stand apart in the source and are kept apart here.

T2 sequence (P42336 whole entry): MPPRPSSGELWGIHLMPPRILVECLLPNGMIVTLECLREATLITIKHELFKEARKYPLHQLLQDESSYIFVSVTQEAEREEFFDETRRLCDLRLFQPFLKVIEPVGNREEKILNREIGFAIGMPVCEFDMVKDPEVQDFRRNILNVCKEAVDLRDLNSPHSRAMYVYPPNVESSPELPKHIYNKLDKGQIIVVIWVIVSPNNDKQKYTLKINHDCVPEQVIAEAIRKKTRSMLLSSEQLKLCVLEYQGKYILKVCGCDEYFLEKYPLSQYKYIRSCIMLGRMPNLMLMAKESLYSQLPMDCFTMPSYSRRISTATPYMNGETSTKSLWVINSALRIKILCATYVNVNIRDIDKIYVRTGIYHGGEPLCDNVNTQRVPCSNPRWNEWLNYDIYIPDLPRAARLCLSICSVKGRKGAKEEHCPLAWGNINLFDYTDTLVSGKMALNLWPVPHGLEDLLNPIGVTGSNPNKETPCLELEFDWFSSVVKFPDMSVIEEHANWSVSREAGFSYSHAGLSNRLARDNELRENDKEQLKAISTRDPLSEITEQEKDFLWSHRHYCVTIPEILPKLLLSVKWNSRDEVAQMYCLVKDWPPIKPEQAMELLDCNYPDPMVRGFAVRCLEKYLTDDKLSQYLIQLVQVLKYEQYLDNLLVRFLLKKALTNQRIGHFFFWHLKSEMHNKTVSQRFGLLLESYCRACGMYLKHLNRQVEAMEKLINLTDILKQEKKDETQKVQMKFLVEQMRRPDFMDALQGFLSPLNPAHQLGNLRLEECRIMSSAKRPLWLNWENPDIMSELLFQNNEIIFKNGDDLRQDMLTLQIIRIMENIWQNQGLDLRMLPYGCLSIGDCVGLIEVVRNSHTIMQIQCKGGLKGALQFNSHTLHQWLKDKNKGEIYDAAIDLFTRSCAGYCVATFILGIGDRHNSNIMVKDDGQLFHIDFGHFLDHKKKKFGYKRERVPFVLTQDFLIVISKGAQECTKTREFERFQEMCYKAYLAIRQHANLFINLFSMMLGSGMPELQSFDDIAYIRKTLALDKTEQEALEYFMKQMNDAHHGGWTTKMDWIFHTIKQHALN
T2 sequence (P27986 whole entry partner): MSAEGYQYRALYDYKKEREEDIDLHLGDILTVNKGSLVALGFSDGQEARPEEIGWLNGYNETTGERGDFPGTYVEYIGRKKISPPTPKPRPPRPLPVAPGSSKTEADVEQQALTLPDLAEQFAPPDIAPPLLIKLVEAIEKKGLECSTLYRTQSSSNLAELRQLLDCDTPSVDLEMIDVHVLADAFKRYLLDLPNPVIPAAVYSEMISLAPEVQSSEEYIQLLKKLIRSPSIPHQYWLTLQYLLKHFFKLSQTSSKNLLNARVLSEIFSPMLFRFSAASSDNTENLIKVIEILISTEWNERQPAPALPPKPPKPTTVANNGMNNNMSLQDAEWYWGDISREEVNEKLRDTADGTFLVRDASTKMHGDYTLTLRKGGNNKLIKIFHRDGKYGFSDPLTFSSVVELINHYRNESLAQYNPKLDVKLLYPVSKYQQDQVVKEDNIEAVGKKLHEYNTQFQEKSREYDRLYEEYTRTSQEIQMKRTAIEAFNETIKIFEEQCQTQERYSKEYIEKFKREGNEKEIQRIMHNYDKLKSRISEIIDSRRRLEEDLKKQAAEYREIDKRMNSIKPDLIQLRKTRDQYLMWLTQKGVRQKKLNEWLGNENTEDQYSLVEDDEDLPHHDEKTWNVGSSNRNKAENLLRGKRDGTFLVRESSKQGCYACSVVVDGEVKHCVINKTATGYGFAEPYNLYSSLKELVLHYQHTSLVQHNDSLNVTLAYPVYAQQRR
T1 sequence (O00329 whole entry): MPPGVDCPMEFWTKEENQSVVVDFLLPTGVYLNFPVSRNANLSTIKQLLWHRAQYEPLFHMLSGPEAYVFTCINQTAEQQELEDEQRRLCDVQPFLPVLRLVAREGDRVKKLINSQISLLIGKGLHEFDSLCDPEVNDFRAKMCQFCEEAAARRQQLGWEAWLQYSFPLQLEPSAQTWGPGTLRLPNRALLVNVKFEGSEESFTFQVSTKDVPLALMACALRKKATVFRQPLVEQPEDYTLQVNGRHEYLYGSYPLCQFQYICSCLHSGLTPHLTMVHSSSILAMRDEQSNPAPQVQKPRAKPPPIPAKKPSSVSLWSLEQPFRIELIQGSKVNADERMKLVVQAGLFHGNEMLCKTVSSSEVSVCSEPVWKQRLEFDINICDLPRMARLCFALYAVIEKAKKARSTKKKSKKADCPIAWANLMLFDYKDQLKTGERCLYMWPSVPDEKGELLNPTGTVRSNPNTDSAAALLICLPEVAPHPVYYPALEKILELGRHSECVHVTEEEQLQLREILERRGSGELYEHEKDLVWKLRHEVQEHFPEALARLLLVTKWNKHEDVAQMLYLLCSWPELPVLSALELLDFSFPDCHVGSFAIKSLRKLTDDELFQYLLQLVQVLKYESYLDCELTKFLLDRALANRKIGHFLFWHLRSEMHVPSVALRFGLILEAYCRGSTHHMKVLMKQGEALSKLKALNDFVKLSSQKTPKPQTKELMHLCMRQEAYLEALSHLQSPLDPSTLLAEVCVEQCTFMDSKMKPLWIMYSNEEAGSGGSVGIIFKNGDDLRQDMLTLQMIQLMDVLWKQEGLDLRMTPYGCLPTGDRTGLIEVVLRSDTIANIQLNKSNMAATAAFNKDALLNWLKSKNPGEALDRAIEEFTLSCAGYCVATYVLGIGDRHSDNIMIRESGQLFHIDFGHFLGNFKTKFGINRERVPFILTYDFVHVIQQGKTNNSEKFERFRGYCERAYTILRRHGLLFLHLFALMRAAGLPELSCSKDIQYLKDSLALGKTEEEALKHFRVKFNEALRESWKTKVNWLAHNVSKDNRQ
T1 sequence (P27986 whole entry partner): as the sequence (P27986 whole entry partner) above

With `CC(C)N1CCc2c(nc(-c3ccc(NC(=O)NC4CC4)cc3)nc2N2CCOC[C@@H]2C)C1` [Example 43, (S)-1-cyclopropyl-3-(4-(7-isopropyl-4-(3-methylmorpholino)-5,6,7,8-tetrahydropyrido[3,4-d]pyrimidin-2-yl)phenyl)urea], the IC50 at PI3K delta (PI3 Kd) (setting [1]) is > 10 µM; on PI3K delta (PI3 Kd) (setting [2]), > 10 µM; at PI3Kalpha (PI3Ka) (kinobeads assay, Table 6, read-out: Inhibition values (IC50) PI3Ka) it was 1 to 10 µM; at PI3 Kgamma (PI3 Kg) (setting [3]), 1 to 10 µM.

For `C[C@H]1COCCN1c1nc(-c2ccc(NC(=O)NC3CC3)cc2)nc2c1CN(C(=O)C(C)(C)C)C2` [Example 45, (S)-1-cyclopropyl-3-(4-(4-(3-methylmorpholino)-6-pivaloyl-6,7-dihydro-5H-pyrrolo[3,4-d]pyrimidin-2-yl)phenyl)urea], the IC50 on PI3K delta (PI3 Kd) (setting [1]), on PI3K delta (PI3 Kd) (setting [2]) and at PI3 Kgamma (PI3 Kg) (setting [3]) was > 10 µM each time. The “Inhibition values (IC50) PI3Ka” value at PI3Kalpha (PI3Ka) (kinobeads assay, Table 6) is listed as “D (D >10 μM)”.

Take `C[C@H]1COCCN1c1nc(-c2ccc(NC(=O)Nc3ccc(F)cc3)cc2)nc2c1CN(C)C2` [Example 52, (S)-1-(4-fluorophenyl)-3-(4-(6-methyl-4-(3-methylmorpholino)-6,7-dihydro-5H-pyrrolo[3,4-d]pyrimidin-2-yl)phenyl)urea]: the IC50 on PI3K delta (PI3 Kd) (setting [1]), at PI3K delta (PI3 Kd) (setting [2]) and on PI3 Kgamma (PI3 Kg) (setting [3]) was > 10 µM in each case. In addition, the “Inhibition values (IC50) PI3Ka” value at PI3Kalpha (PI3Ka) (kinobeads assay, Table 6) is listed as “D (D >10 μM)”.

Regarding `CCNC(=O)Nc1ccc(-c2nc3c(c(N4CCOC[C@@H]4C)n2)CCN(C(=O)C2CC2)C3)cc1` [Example 56, (S)-1-(4-(7-(cyclopropanecarbonyl)-4-(3-methylmorpholino)-5,6,7,8-tetrahydropyrido[3,4-d]pyrimidin-2-yl)phenyl)-3-ethylurea], the IC50 at PI3K delta (PI3 Kd) (setting [1]), at PI3K delta (PI3 Kd) (setting [2]) and on PI3 Kgamma (PI3 Kg) (setting [3]) was > 10 µM in each case. Moreover, the “Inhibition values (IC50) PI3Ka” value at PI3Kalpha (PI3Ka) (kinobeads assay, Table 6) is reported as “D (D >10 μM)”.

Regarding `CCNC(=O)Nc1ccc(-c2nc3c(c(N4CCOC[C@@H]4C)n2)CCN(C(=O)C(C)C)C3)cc1` [Example 57, (S)-1-ethyl-3-(4-(7-isobutyryl-4-(3-methylmorpholino)-5,6,7,8-tetrahydropyrido[3,4-d]pyrimidin-2-yl)phenyl)urea], the IC50 on PI3K delta (PI3 Kd) (setting [1]), on PI3K delta (PI3 Kd) (setting [2]) and at PI3 Kgamma (PI3 Kg) (setting [3]) was > 10 µM throughout. Further, the “Inhibition values (IC50) PI3Ka” value on PI3Kalpha (PI3Ka) (kinobeads assay, Table 6) was “D (D >10 μM)”.

As to `CCNC(=O)Nc1cc(F)c(-c2nc3c(c(N4CCOC[C@@H]4C)n2)CN(C(=O)OCC)C3)cc1F` [Example 141, (S)-ethyl 2-(4-(3-ethylureido)-2,5-difluorophenyl)-4-(3-methylmorpholino)-5H-pyrrolo[3,4-d]pyrimidine-6(7H)-carboxylate], the IC50 on PI3K delta (PI3 Kd) (setting [4]) and at PI3 Kgamma (PI3 Kg) (setting [5]) was > 10 µM throughout. Moreover, on PI3Kalpha (PI3Ka) (Further Kinobeads Data), the PI3Ka result is reported as “D (D >10 μM)”.

For `COC(=O)N1Cc2nc(-c3ccc(NC(=O)NC4CC4)cc3F)nc(N3CCOC[C@@H]3C)c2C1` [Example 146, (S)-methyl 2-(4-(3-cyclopropylureido)-2-fluorophenyl)-4-(3-methylmorpholino)-5H-pyrrolo[3,4-d]pyrimidine-6(7H)-carboxylate], the IC50 on PI3K delta (PI3 Kd) (setting [4]) and on PI3 Kgamma (PI3 Kg) (setting [5]) was > 10 µM in each case. Also, the PI3Ka result on PI3Kalpha (PI3Ka) (Further Kinobeads Data) is “D (D >10 μM)”.

As to `C[C@H]1COCCN1c1nc(-c2ccc(NC(=O)NC3CC3)cc2F)nc2c1CN(C)C2` [Example 147, (S)-1-cyclopropyl-3-(3-fluoro-4-(6-methyl-4-(3-methylmorpholino)-6,7-dihydro-5H-pyrrolo[3,4-d]pyrimidin-2-yl)phenyl)urea], the IC50 at PI3K delta (PI3 Kd) (setting [4]) and at PI3 Kgamma (PI3 Kg) (setting [5]) was > 10 µM each time. The PI3Ka entry at PI3Kalpha (PI3Ka) (Further Kinobeads Data) is listed as “D (D >10 μM)”.

In the case of `CCNC(=O)Nc1ccc(-c2nc3c(c(N4CCOCC4)n2)CN(C(=O)OCC)C3)c(F)c1` [Example 151, Ethyl 2-(4-(3-ethylureido)-2-fluorophenyl)-4-morpholino-5H-pyrrolo[3,4-d]pyrimidine-6(7H)-carboxylate], the results for the IC50 at PI3K delta (PI3 Kd) (setting [4]), on PI3Kalpha (PI3Ka) (setting [6]) and at PI3 Kgamma (PI3 Kg) (setting [5]) were > 10 µM, 1 to 10 µM and 1 to 10 µM, respectively.

With `CCNC(=O)Nc1ccc(-c2nc3c(c(N4CCOC[C@@H]4C)n2)CN(C(=O)OC)C3)c(F)c1` [Example 152, (S)-methyl 2-(4-(3-ethylureido)-2-fluorophenyl)-4-(3-methylmorpholino)-5H-pyrrolo[3,4-d]pyrimidine-6-(7H)-carboxylate], the IC50 at PI3K delta (PI3 Kd) (setting [4]) was 1 to 10 µM; on PI3 Kgamma (PI3 Kg) (setting [5]), > 10 µM. The PI3Ka result on PI3Kalpha (PI3Ka) (Further Kinobeads Data) is on record as “D (D >10 μM)”.

For the compound `CCNC(=O)Nc1ccc(-c2nc3c(c(N4CCOC[C@@H]4C)n2)CN(C(=O)OC(C)(C)C)C3)c(F)c1` [Example 153, (S)-tert-butyl 2-(4-(3-ethylureido)-2-fluorophenyl)-4-(3-methylmorpholino)-5H-pyrrolo[3,4-d]pyrimidine-6-(7H)-carboxylate], the IC50 on PI3K delta (PI3 Kd) (setting [4]) and on PI3 Kgamma (PI3 Kg) (setting [5]) was > 10 µM in each case. Besides, the PI3Ka entry on PI3Kalpha (PI3Ka) (Further Kinobeads Data) is given as “D (D >10 μM)”.

As to `CCNC(=O)Nc1ccc(-c2nc3c(c(N4CCOCC4)n2)CN(C)C3)c(F)c1` [Example 154, 1-ethyl-3-(3-fluoro-4-(6-methyl-4-morpholino-6,7-dihydro-5H-pyrrolo[3,4-d]pyrimidin-2-yl)phenyl)urea], the IC50 on PI3K delta (PI3 Kd) (setting [4]) and on PI3 Kgamma (PI3 Kg) (setting [5]) was > 10 µM throughout. The PI3Ka result at PI3Kalpha (PI3Ka) (Further Kinobeads Data) was “D (D >10 μM)”.

As for `CC(=O)N1Cc2nc(-c3ccc(NC(=O)NC4CC4)cc3F)nc(N3CCOC[C@@H]3C)c2C1` [Example 155, (S)-1-(4-(6-acetyl-4-(3-methylmorpholino)-6,7-dihydro-5H-pyrrolo[3,4-d]pyrimidin-2-yl)-3-fluorophenyl)-3-cyclopropylurea], the IC50 at PI3K delta (PI3 Kd) (setting [4]) and at PI3 Kgamma (PI3 Kg) (setting [5]) was > 10 µM each time. Moreover, at PI3Kalpha (PI3Ka) (Further Kinobeads Data), the PI3Ka result is “D (D >10 μM)”.

Consider `CCOC(=O)N1Cc2nc(-c3ccc(NC(=O)NC4CC4)cc3F)nc(N3CCOCC3)c2C1` [Example 156, Ethyl 2-(4-(3-cyclopropylureido)-2-fluorophenyl)-4-morpholino-5H-pyrrolo[3,4-d]pyrimidine-6(7H)-carboxylate], for which the IC50 on PI3K delta (PI3 Kd) (setting [4]) and on PI3 Kgamma (PI3 Kg) (setting [5]) was > 10 µM in each case. On PI3Kalpha (PI3Ka) (Further Kinobeads Data), the PI3Ka entry was “D (D >10 μM)”.

`CN1Cc2nc(-c3ccc(NC(=O)NC4CC4)cc3F)nc(N3CCOCC3)c2C1` [Example 159, 1-(Cyclopropyl)-3-(3-fluoro-4-(6-methyl-4-morpholino-6,7-dihydro-5H-pyrrolo[3,4-d]pyrimidin-2-yl)phenyl)urea]: the IC50 at PI3K delta (PI3 Kd) (setting [4]) was > 10 µM; at PI3Kalpha (PI3Ka) (setting [6]), 1 to 10 µM; on PI3 Kgamma (PI3 Kg) (setting [5]) it was > 10 µM.

`CCNC(=O)Nc1ccc(-c2nc3c(c(N4CCOC[C@@H]4C)n2)CN(C)C3)c(F)c1` [Example 160, (S)-1-ethyl-3-(3-fluoro-4-(6-methyl-4-(3-methylmorpholino)-6,7-dihydro-5H-pyrrolo[3,4-d]pyrimidin-2-yl)phenyl)urea]: the IC50 on PI3K delta (PI3 Kd) (setting [4]) and at PI3 Kgamma (PI3 Kg) (setting [5]) was > 10 µM throughout. On PI3Kalpha (PI3Ka) (Further Kinobeads Data), the PI3Ka result is given as “D (D >10 μM)”.

Consider `CCNC(=O)Nc1ccc(-c2nc3c(c(N4CCOCC4)n2)CN(C(=O)OC)C3)c(F)c1` [Example 162, methyl 2-(4-(3-ethylureido)-2-fluorophenyl)-4-morpholino-5H-pyrrolo[3,4-d]pyrimidine-6(7H)-carboxylate], for which the values for the IC50 on PI3K delta (PI3 Kd) (setting [4]), on PI3Kalpha (PI3Ka) (setting [6]) and on PI3 Kgamma (PI3 Kg) (setting [5]) were 1 to 10 µM, 1 to 10 µM and > 10 µM, respectively.

Regarding `C[C@H]1COCCN1c1nc(-c2ccc(NC(=O)NC3CC3)cc2F)nc2c1CCNC2` [Example 163, (S)-1-cyclopropyl-3-(3-fluoro-4-(4-(3-methylmorpholino)-5,6,7,8-tetrahydropyrido[3,4-d]pyrimidin-2-yl)phenyl)urea], the IC50 at PI3K delta (PI3 Kd) (setting [4]) and at PI3 Kgamma (PI3 Kg) (setting [5]) was > 10 µM throughout. For the same compound, the PI3Ka result at PI3Kalpha (PI3Ka) (Further Kinobeads Data) is reported as “D (D >10 μM)”.

Take `CCNC(=O)Nc1ccc(-c2nc3c(c(N4CCOC[C@@H]4C)n2)CCNC3)c(F)c1` [Example 164, (S)-1-ethyl-3-(3-fluoro-4-(4-(3-methylmorpholino)-5,6,7,8-tetrahydropyrido[3,4-d]pyrimidin-2-yl)phenyl)urea]: the IC50 on PI3K delta (PI3 Kd) (setting [4]) and on PI3 Kgamma (PI3 Kg) (setting [5]) was > 10 µM each time. On PI3Kalpha (PI3Ka) (Further Kinobeads Data), the PI3Ka entry was “D (D >10 μM)”.

On to `C[C@H]1COCCN1c1nc(-c2ccc(NC(=O)NC3CC3)cc2F)nc2c1CCN(C(=O)N(C)C)C2` [Example 165, (S)-2-(4-(3-cyclopropylureido)-2-fluorophenyl)-N,N-dimethyl-4-(3-methylmorpholino)-5,6-dihydropyrido[3,4-d]pyrimidine-7(8H)-carboxamide], for which the IC50 at PI3K delta (PI3 Kd) (setting [4]) and at PI3 Kgamma (PI3 Kg) (setting [5]) was > 10 µM throughout. For the same compound, the PI3Ka entry at PI3Kalpha (PI3Ka) (Further Kinobeads Data) is recorded as “D (D >10 μM)”.

Consider `CCOC(=O)N1Cc2nc(-c3ccc(NC(=O)NCCO)cc3F)nc(N3CCOC[C@@H]3C)c2C1` [Example 167, (S)-Ethyl 2-(2-fluoro-4-(3-(2-hydroxyethyl)ureido)phenyl)-4-(3-methylmorpholino)-5H-pyrrolo[3,4-d]pyrimidine-6(7H)-carboxylate], for which the figures for the IC50 at PI3K delta (PI3 Kd) (setting [4]) and at PI3 Kgamma (PI3 Kg) (setting [5]) were 1 to 10 µM and > 10 µM, respectively. The PI3Ka result at PI3Kalpha (PI3Ka) (Further Kinobeads Data) is “D (D >10 μM)”.

With `CCOC(=O)N1Cc2nc(-c3ccc(NC(=O)NCCF)cc3F)nc(N3CCOC[C@@H]3C)c2C1` [Example 168, (S)-ethyl 2-(2-fluoro-4-(3-(2-fluoroethyl)ureido)phenyl)-4-(3-methylmorpholino)-5H-pyrrolo[3,4-d]pyrimidine-6(7H)-carboxylate], the IC50 at PI3K delta (PI3 Kd) (setting [4]) is 1 to 10 µM; at PI3Kalpha (PI3Ka) (setting [6]), 1 to 10 µM; at PI3 Kgamma (PI3 Kg) (setting [5]), > 10 µM.
